Measurements reported in paper PMC11395447, “Development and Optimization of a Bromothymol Blue-Based PLA2 Assay Involving POPC-Based Self-Assemblies” (International Journal of Molecular Sciences, 2024).

Target: T1, PLA2-IB (Phospholipase A2 IB) (Sus scrofa, UniProt P00592)
T1 construct: gene PLA2G1B
Assay: bromothymol blue absorbance assay, Michaelis-Menten kinetics on POPC liposomes (Km)
Type: biochemical

T1 sequence (P00592 23-146): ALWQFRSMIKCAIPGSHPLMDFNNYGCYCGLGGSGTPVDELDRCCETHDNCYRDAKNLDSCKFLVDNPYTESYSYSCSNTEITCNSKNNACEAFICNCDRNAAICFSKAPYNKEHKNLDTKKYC

Q: POPC was tested. Which Km did it give?
A: The Km was 12.9 µM.
